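Results reflect a 48-hour exposure of cells in 96-well plates to compound at five concentrations. Abbreviation: GI50, concentration required for 50% inhibition of growth.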 Activity calls are given as the source filed them. Rule as the data show it: active = GI50 up to about 1.1 µM and inactive = higher.
What was measured:
Experiment in all cases: NCI-60 cell line screen, 48 h
[1] = tested on: SW-620
[2] = tested on: OVCAR-5
[3] = tested on: T47D
[4] = tested on: UO-31
[5] = tested on: Malme-3M
[6] = tested on: SNB-19
[7] = tested on: SK-OV-3
[8] = tested on: HCC 2998
[9] = tested on: MDA-MB-435
[10] = tested on: COLO 205
[11] = tested on: MDA-MB-231
[12] = tested on: SF-268
[13] = tested on: BT-549
[14] = tested on: HOP-92

Measured: GI50

CN(C1=NCCO1)c1cccc2ccccc12
inactive: [1] > 10 µM | [2] > 10 µM | [3] > 10 µM | [4] > 10 µM | [5] > 10 µM | [6] > 10 µM | [7] > 10 µM | [8] > 10 µM | [9] > 10 µM | [10] > 10 µM | [11] > 10 µM | [12] > 10 µM

C=CCc1cccc2cc(C(=O)Nc3ccc(C)cc3)c(=N)oc12
inactive: [1] > 100 µM | [2] > 100 µM | [3] > 100 µM | [5] > 100 µM | [13] > 100 µM | [6] > 100 µM | [7] > 100 µM | [8] > 100 µM | [14] > 100 µM | [9] > 100 µM | [10] > 100 µM | [11] > 100 µM | [12] > 100 µM

COc1ccc2c(c1)c1c(n2CCN(C)C)-c2ccccc2CC1
inactive: [1] 16.8 µM | [2] 18.2 µM | [3] 14.5 µM | [4] 13.5 µM | [5] 20.3 µM | [13] 16.9 µM | [6] 15.7 µM | [7] 20.2 µM | [8] 18.2 µM | [14] 16.5 µM | [9] 16.5 µM | [10] 12.5 µM | [11] 13.6 µM | [12] 18.1 µM

Cc1ccnc2nc(N)ccc12
inactive: [1] > 100 µM | [2] > 100 µM | [3] > 100 µM | [4] > 100 µM | [5] > 100 µM | [13] > 100 µM | [6] > 100 µM | [7] > 100 µM | [9] > 100 µM | [10] > 100 µM | [11] > 100 µM | [12] > 100 µM

Cc1cc(=O)n2nc(CCl)sc2n1
inactive: [1] 15.8 µM | [2] 15 µM | [3] 15.3 µM | [4] 14.3 µM | [5] 12.8 µM | [13] 3.58 µM | [6] 15.8 µM | [7] 15.5 µM | [8] 16 µM | [14] 12.6 µM | [9] 12.7 µM | [10] 18.7 µM | [11] 20.7 µM | [12] 15.8 µM

Cc1ccc2c3c1[C@@H]1O[C@@H]1c1cccc(c1-3)[C@@H]1O[C@H]21
inactive: [2] 18.1 µM | [3] 3.08 µM | [4] 12 µM | [5] 15.3 µM | [13] 17.9 µM | [6] 19.8 µM | [7] 26.7 µM | [14] 18.1 µM | [9] 14.1 µM | [10] 15.8 µM | [11] 18 µM | [12] 12.8 µM

Cc1cc(=O)nc(S(=O)(=O)NC(=S)Nc2ccc(Cl)cc2)[nH]1
inactive: [1] > 100 µM | [2] > 100 µM | [3] 44.9 µM | [4] > 100 µM | [5] > 100 µM | [13] > 100 µM | [6] > 100 µM | [7] > 100 µM | [8] > 100 µM | [14] > 100 µM | [9] > 100 µM | [10] > 100 µM | [11] > 100 µM | [12] > 100 µM

CC=C/C=C/[C@@H]1O[C@](O)([C@H](CC)C(=O)NC/C=C/C=C(\C)[C@@H](OC)[C@@H](C)[C@@H]2O[C@H](/C=C/C=C/C=C(\C)C(=O)c3c(O)cc[nH]c3=O)[C@H](O)[C@@H]2O)[C@H](O)[C@H](O)C1(C)C
inactive: [1] > 100 µM | [2] > 100 µM | [4] > 100 µM | [5] 94.2 µM | [6] > 100 µM | [7] > 100 µM | [8] > 100 µM | [14] > 100 µM | [9] > 100 µM | [12] > 100 µM

CCOC(=O)C1=NN(c2ccc(Cl)cc2)C2=CC(C)=NN(C)C(=S)N21
inactive: [1] 94.6 µM | [2] > 100 µM | [3] 23.9 µM | [4] > 100 µM | [6] 41.5 µM | [7] 29.9 µM | [8] > 100 µM | [14] 30.8 µM | [9] > 100 µM | [10] > 100 µM | [11] 44.5 µM | [12] 45.2 µM

CN(C)C(=O)C(F)(F)C(c1ccc(Br)cc1)C1C(=O)N(C)C(=O)N(C)C1=O (configuration not stated)
inactive: [1] > 100 µM | [2] > 100 µM | [3] > 100 µM | [4] > 100 µM | [13] > 100 µM | [6] > 100 µM | [7] > 100 µM | [8] > 100 µM | [14] > 100 µM | [9] > 100 µM | [10] > 100 µM | [11] > 100 µM | [12] > 100 µM

c1ccc(OCc2nnc(CCCCCCCCc3nnc(COc4ccccc4)o3)o2)cc1
inactive: [1] > 100 µM | [2] > 100 µM | [4] > 100 µM | [13] > 100 µM | [6] 73.8 µM | [7] 32.8 µM | [8] 28.6 µM | [14] 55.6 µM | [9] > 100 µM | [10] > 100 µM | [11] 47.6 µM | [12] 99.5 µM

Cc1ccc(C(=O)Cc2nc3c([nH]c2=O)c(C)nn3-c2ccccc2)c(C)c1
inactive: [1] 6.59 µM | [3] 5.45 µM | [5] > 10 µM | [13] > 10 µM | [6] > 10 µM | [7] > 10 µM | [8] > 10 µM | [14] 6.04 µM | [9] > 10 µM | [10] > 10 µM | [11] > 10 µM | [12] > 10 µM

O=C(O)c1ccc(C(=O)O)c2c(C(=O)O)ccc(C(=O)O)c12
inactive: [1] > 100 µM | [2] > 100 µM | [3] > 100 µM | [4] > 100 µM | [5] > 100 µM | [6] > 100 µM | [7] > 100 µM | [14] > 100 µM | [9] > 100 µM | [10] > 100 µM | [11] > 100 µM | [12] > 100 µM

CN1C(=O)CC(=O)N1/C(=C/c1ccccc1)c1ccccc1
inactive: [1] > 100 µM | [2] > 100 µM | [3] > 100 µM | [4] 18.1 µM | [13] > 100 µM | [6] > 100 µM | [7] > 100 µM | [8] > 100 µM | [14] 75.5 µM | [9] 66.8 µM | [10] 41 µM | [11] 12.6 µM | [12] > 100 µM

CC(=C(c1ccccc1)c1ccccc1)N1C(=O)CC(=O)N1C
inactive: [1] > 100 µM | [2] 53.2 µM | [3] 78.2 µM | [4] 17.1 µM | [13] 34.8 µM | [6] 81.7 µM | [7] > 100 µM | [8] 47 µM | [14] 45.5 µM | [9] 41.1 µM | [10] > 100 µM | [12] 25.5 µM

From ChEMBL document CHEMBL1201862, “PubChem BioAssay data set” (2004)
